Results reported in PubChem BioAssay (NCI).
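Tested at 5 concentrations; 48 h exposure; 96-well plates; endpoints linearly interpolated, else capped at highest concentration. The concentration for full growth arrest is given as TGI.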

Key:
Assay in all cases: inhibition of tumour cell growth, NCI panel, 48 h
CAKI-1 renal = system: CAKI-1 renal
OVCAR-3 ovarian = system: OVCAR-3 ovarian
PC-3 prostate = system: PC-3 prostate
SF-295 CNS = system: SF-295 CNS
SNB-19 CNS = system: SNB-19 CNS
UACC-257 melanoma = system: UACC-257 melanoma
LOX IMVI melanoma = system: LOX IMVI melanoma
MDA-N = system: MDA-N

Question: `COc1ccc(CCNC(=O)CCCCCO)cc1OC` was tested. Which TGI (CAKI-1 renal) did it give?
Answer: > 100 µM

Question: And the TGI (OVCAR-3 ovarian)?
Answer: > 100 µM

Question: What about the TGI (PC-3 prostate) of the same compound?
Answer: > 100 µM

Question: And the TGI (SF-295 CNS)?
Answer: > 100 µM

Question: And the TGI (SNB-19 CNS)?
Answer: > 100 µM

Question: And the TGI (UACC-257 melanoma)?
Answer: > 100 µM

Question: `CCOc1cc2c(cc1O)CC[C@@H]1[C@@H]2CC[C@]2(C)C(OS(=O)OC3CC[C@@H]4[C@H]5CCc6cc(O)c(OCC)cc6[C@@H]5CC[C@@]34C)CC[C@@H]12` (stereo not given in full) was tested. Which TGI (CAKI-1 renal) did it give?
Answer: 26 µM

Question: And the TGI (LOX IMVI melanoma)?
Answer: > 51.7 µM

Question: And the TGI (MDA-N)?
Answer: 0.544 µM

Question: What about the TGI (OVCAR-3 ovarian) of the same compound?
Answer: 0.813 µM

Question: And the TGI (PC-3 prostate)?
Answer: 24.9 µM

Question: And the TGI (SF-295 CNS)?
Answer: 22.5 µM

Question: What about the TGI (SNB-19 CNS) of the same compound?
Answer: 30.4 µM

Question: And the TGI (UACC-257 melanoma)?
Answer: > 42.8 µM

Question: How did the TGI (CAKI-1 renal) turn out when `CC1(C)O[C@H]2OC(CO)C(OS(C)(=O)=O)[C@H]2O1` (stereo not given in full) was run?
Answer: > 100 µM

Question: And the TGI (LOX IMVI melanoma)?
Answer: > 100 µM

Question: And the TGI (MDA-N)?
Answer: > 100 µM

Question: And the TGI (OVCAR-3 ovarian)?
Answer: > 100 µM

Question: What about the TGI (PC-3 prostate) of the same compound?
Answer: > 100 µM

Question: And the TGI (SF-295 CNS)?
Answer: > 100 µM

Question: And the TGI (SNB-19 CNS)?
Answer: > 100 µM

Question: And the TGI (UACC-257 melanoma)?
Answer: > 100 µM

Question: What does the source list for `COc1ccc(N=N/C(=N/NC(=O)c2cc(Cl)ccc2C(=O)c2ccccc2)c2ccc(N(CCC#N)CCC#N)cc2C)cc1`?
Answer: TGI (CAKI-1 renal): 46 µM; TGI (MDA-N): > 100 µM; TGI (OVCAR-3 ovarian): 27.9 µM; TGI (PC-3 prostate): 41.4 µM; TGI (SF-295 CNS): > 100 µM; TGI (SNB-19 CNS): > 100 µM; TGI (UACC-257 melanoma): 81 µM

Question: What does the source list for `COc1ccc(-c2nnc(CCCCCCCCc3nnc(-c4ccc(OC)cc4)n3N)n2N)cc1`?
Answer: TGI (CAKI-1 renal): > 100 µM; TGI (LOX IMVI melanoma): > 100 µM; TGI (MDA-N): > 100 µM; TGI (OVCAR-3 ovarian): > 100 µM; TGI (PC-3 prostate): > 100 µM; TGI (SF-295 CNS): > 100 µM; TGI (SNB-19 CNS): > 100 µM; TGI (UACC-257 melanoma): > 100 µM

Question: Which results are given for `COc1cc(C2c3cc4c(cc3OC3(OC)COC(=O)C23)OCO4)cc(OC)c1OC` (stereo not given)?
Answer: TGI (CAKI-1 renal): > 90.2 µM; TGI (LOX IMVI melanoma): 23.4 µM; TGI (MDA-N): 0.319 µM; TGI (OVCAR-3 ovarian): 2.45 µM; TGI (PC-3 prostate): > 44.9 µM; TGI (SF-295 CNS): 0.479 µM; TGI (SNB-19 CNS): > 26.6 µM; TGI (UACC-257 melanoma): > 100 µM

Question: Which results are given for `O=C(CCc1ccc(O)c(O)c1)NCCc1ccc(O)c(O)c1`?
Answer: TGI (LOX IMVI melanoma): > 100 µM; TGI (MDA-N): 33.9 µM; TGI (OVCAR-3 ovarian): > 100 µM; TGI (PC-3 prostate): > 100 µM; TGI (SF-295 CNS): > 100 µM; TGI (SNB-19 CNS): > 100 µM; TGI (UACC-257 melanoma): > 100 µM

Question: For `CCC/C(Cl)=N\OC(=O)Nc1ccc(F)c([N+](=O)[O-])c1`, which TGI (CAKI-1 renal) is on record?
Answer: 15.5 µM

Question: And the TGI (LOX IMVI melanoma)?
Answer: 66.8 µM

Question: And the TGI (MDA-N)?
Answer: 47.6 µM

Question: What about the TGI (OVCAR-3 ovarian) of the same compound?
Answer: 28.9 µM

Question: What about the TGI (PC-3 prostate) of the same compound?
Answer: 28.5 µM

Question: And the TGI (SF-295 CNS)?
Answer: > 100 µM

Question: What about the TGI (SNB-19 CNS) of the same compound?
Answer: 28.5 µM

Question: And the TGI (UACC-257 melanoma)?
Answer: 34.2 µM

Question: Which results are given for `O=S(=O)(O)c1cc(Nc2ccnc3ccccc23)c2c(S(=O)(=O)O)cc(S(=O)(=O)O)cc2c1`?
Answer: TGI (CAKI-1 renal): > 100 µM; TGI (LOX IMVI melanoma): > 100 µM; TGI (MDA-N): > 100 µM; TGI (OVCAR-3 ovarian): > 100 µM; TGI (PC-3 prostate): > 100 µM; TGI (UACC-257 melanoma): > 100 µM

Question: Which TGI (CAKI-1 renal) does the source give for `Cc1nc2c(Cl)cc(Cl)cc2c(Cl)c1CCCl` here?
Answer: > 100 µM

Question: What about the TGI (LOX IMVI melanoma) of the same compound?
Answer: > 100 µM

Question: And the TGI (MDA-N)?
Answer: > 100 µM

Question: What about the TGI (OVCAR-3 ovarian) of the same compound?
Answer: > 100 µM

Question: And the TGI (PC-3 prostate)?
Answer: > 100 µM

Question: And the TGI (SF-295 CNS)?
Answer: > 100 µM

Question: What about the TGI (SNB-19 CNS) of the same compound?
Answer: > 100 µM

Question: And the TGI (UACC-257 melanoma)?
Answer: > 100 µM

Question: What does the source list for `CCOC(=O)Cn1nnc2cc(Nc3nc4ccccc4nc3C(=O)OCC)ccc21`?
Answer: TGI (CAKI-1 renal): > 100 µM; TGI (LOX IMVI melanoma): > 100 µM; TGI (MDA-N): > 100 µM; TGI (OVCAR-3 ovarian): > 100 µM; TGI (PC-3 prostate): > 100 µM; TGI (SF-295 CNS): > 100 µM; TGI (SNB-19 CNS): > 100 µM; TGI (UACC-257 melanoma): > 100 µM

Question: For `CCCCC1(N=[N+]=[N-])C(=O)C2C=CC=C3c4ccccc4N(C1=O)C32` (stereo not given), which TGI (CAKI-1 renal) is on record?
Answer: > 31.6 µM

Question: And the TGI (LOX IMVI melanoma)?
Answer: > 31.6 µM

Question: What about the TGI (MDA-N) of the same compound?
Answer: > 31.6 µM

Question: And the TGI (OVCAR-3 ovarian)?
Answer: > 31.6 µM

Question: What about the TGI (PC-3 prostate) of the same compound?
Answer: > 31.6 µM

Question: And the TGI (SF-295 CNS)?
Answer: > 31.6 µM

Question: What about the TGI (SNB-19 CNS) of the same compound?
Answer: > 31.6 µM

Question: And the TGI (UACC-257 melanoma)?
Answer: 30.9 µM

Question: With `CCCCNC(=S)c1ccc(OC(=O)Nc2ccc(Cl)cc2)cc1` as the compound, how does the TGI (CAKI-1 renal) read?
Answer: > 100 µM

Question: And the TGI (LOX IMVI melanoma)?
Answer: > 100 µM

Question: And the TGI (MDA-N)?
Answer: > 100 µM

Question: What about the TGI (OVCAR-3 ovarian) of the same compound?
Answer: > 100 µM

Question: And the TGI (PC-3 prostate)?
Answer: > 100 µM

Question: And the TGI (SF-295 CNS)?
Answer: > 100 µM

Question: And the TGI (SNB-19 CNS)?
Answer: > 100 µM

Question: And the TGI (UACC-257 melanoma)?
Answer: > 100 µM

Question: What does the source list for `CC1(C)OCC(COC(=O)NCn2cc(-c3ccccc3)nn2)O1` (stereo not given)?
Answer: TGI (CAKI-1 renal): > 100 µM; TGI (LOX IMVI melanoma): > 100 µM; TGI (PC-3 prostate): > 100 µM; TGI (SF-295 CNS): > 100 µM; TGI (SNB-19 CNS): > 100 µM; TGI (UACC-257 melanoma): > 100 µM

Question: Which results are given for `COc1ccc(-c2nnc(-c3ccncc3)o2)cc1`?
Answer: TGI (CAKI-1 renal): > 100 µM; TGI (LOX IMVI melanoma): > 100 µM; TGI (MDA-N): > 100 µM; TGI (OVCAR-3 ovarian): > 100 µM; TGI (PC-3 prostate): > 100 µM; TGI (SF-295 CNS): > 100 µM; TGI (SNB-19 CNS): > 100 µM; TGI (UACC-257 melanoma): > 100 µM

Question: What does the source list for `CN(C)CCNC(=O)c1cccc2[nH]c(-c3ccncc3)nc12`?
Answer: TGI (CAKI-1 renal): 5.95 µM; TGI (LOX IMVI melanoma): 1.81 µM; TGI (MDA-N): 3.27 µM; TGI (OVCAR-3 ovarian): > 46.9 µM; TGI (PC-3 prostate): > 24.3 µM; TGI (SF-295 CNS): 7.97 µM; TGI (SNB-19 CNS): > 63.2 µM; TGI (UACC-257 melanoma): 3.51 µM

Question: What does the source list for `CCOC(=O)c1nc2cc(C(F)(F)F)ccc2nc1Nc1ccc(F)cc1`?
Answer: TGI (CAKI-1 renal): > 100 µM; TGI (LOX IMVI melanoma): > 100 µM; TGI (MDA-N): > 100 µM; TGI (OVCAR-3 ovarian): > 100 µM; TGI (PC-3 prostate): > 100 µM; TGI (SF-295 CNS): > 100 µM; TGI (UACC-257 melanoma): > 100 µM

Question: Which results are given for `Cc1[nH]c(=O)nc2nc3ccc(Cl)cc3c(NC(C)(CO)CO)c12`?
Answer: TGI (CAKI-1 renal): > 100 µM; TGI (LOX IMVI melanoma): > 100 µM; TGI (MDA-N): > 100 µM; TGI (OVCAR-3 ovarian): > 100 µM; TGI (PC-3 prostate): > 100 µM; TGI (SF-295 CNS): > 100 µM; TGI (SNB-19 CNS): > 95.3 µM; TGI (UACC-257 melanoma): > 100 µM
